# According to patent publication US8367873B2, “Phenyl-substituted bicyclooctane-1,3-dione derivatives” (Bayer Cropscience AG, priority 2008, dated 2013):
# Tests used:
# Format in all cases: in vivo
# Setaria viridis [1] = experiment: Herbicidal post-emergence action; details: post-emergence method, 80 g/ha
# In short: (§1)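 Greenhouse plants in sandy loam sprayed at the one-leaf stage, 2-3 weeks after sowing, with WP-formulated compound at varied rates in 600 l/ha water plus 0.2% wetting agent. Damage scored visually after about three weeks as percent effect versus untreated controls (100% = dead).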
# Lolium multiflorum [2] = experiment: Herbicidal post-emergence action; details: post-emergence method, 80 g/ha
# In short: as §1
# Echinocloa crus-galli [3] = experiment: Herbicidal post-emergence action; details: post-emergence method, 80 g/ha
# In short: as §1
# Alopecurus myosuroides [4] = experiment: Herbicidal post-emergence action; details: post-emergence method, 80 g/ha
# In short: as §1
# [5] = test system: monocotylidonous and dicotylidonous weed and crop plants; experiment: Herbicidal pre-emergence action (other test plants); details: pre-emergence method, 80 g/ha, greenhouse, visual assessment vs untreated controls
# In short: (§2)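 Visual percent effect relative to untreated controls (0% = like control, 100% = dead) assessed three weeks after treatment in the greenhouse. Compounds, as wettable powders in water (600 l/ha, 0.2% wetting agent), were sprayed at different amounts onto covering soil over seeds sown in sandy loam.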
# Setaria viridis [6] = experiment: Herbicidal pre-emergence action; details: pre-emergence method, 80 g/ha, greenhouse, visual assessment vs untreated controls
# In short: as §2
# Lolium multiflorum [7] = experiment: Herbicidal pre-emergence action; details: pre-emergence method, 80 g/ha, greenhouse, visual assessment vs untreated controls
# In short: as §2
# Echinocloa crus-galli [8] = experiment: Herbicidal pre-emergence action; details: pre-emergence method, 80 g/ha, greenhouse, visual assessment vs untreated controls
# In short: as §2
# Alopecurus myosuroides [9] = experiment: Herbicidal pre-emergence action; details: pre-emergence method, 80 g/ha, greenhouse, visual assessment vs untreated controls
# In short: as §2
# [10] = test system: monocotylidonous and dicotylidonous weed and crop plants; experiment: Herbicidal post-emergence action (other test plants); details: post-emergence method, 80 g/ha
# In short: as §1
SMILES,herbicidal effect against SETVI (Setaria viridis) (Setaria viridis [1]),herbicidal effect against LOLMU (Lolium multiflorum) (Lolium multiflorum [2]),herbicidal effect against ECHCG (Echinochloa crus-galli) (Echinocloa crus-galli [3]),herbicidal effect against ALOMY (Alopecurus myosuroides) (Alopecurus myosuroides [4]),herbicidal effect AVEFA [5],herbicidal effect SETVI (Setaria viridis [6]),herbicidal effect LOLMU (Lolium multiflorum [7]),herbicidal effect ECHCG (Echinocloa crus-galli [8]),herbicidal effect ALOMY (Alopecurus myosuroides [9]),herbicidal effect against AVEFA (Avena fatua) [10]
CCC(=O)OC1=C(c2c(CC)cc(C)cc2CC)C(=O)C2CC3(CC12)OCCCO3 (stereo not drawn) [I-b-24],100%,100%,100%,100%,70%,40%,100%,100%,70%,100%
Cc1cc(C)c(C2=C([O-])C3CC4(CC3C2=O)OCC(C)CO4)c(C)c1.[Na+] (stereo not drawn) [I-f-9],100%,100%,80%,80%,50%,50%,100%,60%,30%,90%
CCOC(=O)OC1=C(c2c(C)cc(C)cc2CC)C(=O)C2CC3(CC12)OCCCCO3 (racemic) [I-c-75],100%,100%,100%,60%,60%,60%,100%,100%,70%,50%
CCOC(=O)OC1=C(c2c(C)cc(C)cc2OC)C(=O)C2CC3(CC12)OCCO3 (racemic) [I-c-64],100%,100%,100%,80%,70%,70%,100%,50%,60%,80%
CCc1cc(C)cc(CC)c1C1=C(O)C2CC3(CC2C1=O)OC(C)CC(C)O3 (mixture of isomers) [I-a-12],100%,100%,100%,100%,80%,90%,100%,100%,100%,100%
C=C1CC2C(=O)C(c3c(C)cc(C)cc3CC)=C(OC(=O)C(C)C)C2C1 (stereo not drawn) [I-b-72],90%,0%,100%,0%,60%,100%,100%,100%,80%,0%
Cc1cc(C)c(C2=C([O-])C3CC4(CC3C2=O)OCC=CCO4)c(C)c1.[Na+] (stereo not drawn) [I-f-8],100%,100%,100%,100%,40%,70%,100%,0%,30%,90%
CCc1cc(C)cc(CC)c1C1=C(OC(=O)COC)C2CC3(COC(C)(C)O3)CC2C1=O (stereo not drawn) [I-b-4],60%,100%,100%,100%,50%,60%,100%,70%,90%,90%
CCOC(=O)OC1=C(c2c(C)cc(C)cc2CC)C(=O)C2CC3(CC12)OCC=CCO3 (racemic) [I-c-72],100%,100%,100%,100%,50%,80%,100%,100%,60%,70%
CCOC1COC2(CC3C(=O)C(c4c(CC)cc(C)cc4CC)=C(OC(=O)C(C)C)C3C2)OC1 (stereo not drawn) [I-b-16],100%,100%,100%,100%,80%,100%,100%,100%,100%,90%
CCc1cc(C)cc(CC)c1C1=C(OC(=O)OC)[C@H]2C[C@]3(COC(C)(C)O3)C[C@H]2C1=O (relative stereo) [I-c-4],0%,100%,100%,90%,80%,50%,90%,60%,90%,90%
CCc1cc(C)cc(CC)c1C1=C(O)C2CC(=NOC(C)(C)C)CC2C1=O (stereo not drawn) [I-a-68],40%,100%,100%,90%,40%,0%,80%,50%,40%,0%
COc1cc(C)cc(C)c1C1=C(O)C2CC3(CC2C1=O)OCC=CCO3 (stereo not drawn) [I-a-49],100%,100%,100%,100%,90%,90%,100%,100%,100%,100%
CCc1cc(C)cc(C)c1C1=C(OC(=O)C(C)(C)C)C2CC3(CC2C1=O)OCCCCO3 (stereo not drawn) [I-b-78],70%,100%,100%,100%,60%,60%,100%,100%,100%,70%
CCc1cc(C)cc(CC)c1C1=C(O)[C@H]2CC(=NOCC3CC3)C[C@H]2C1=O (relative stereo) [I-a-31],100%,100%,100%,100%,40%,90%,100%,100%,80%,80%
CCOC(=O)OC1=C(c2c(CC)cc(C)cc2CC)C(=O)C2CC3(CC12)OCCS3 (mixture of isomers) [I-c-30],70%,100%,100%,80%,90%,60%,100%,80%,100%,40%
CCC(=O)OC1=C(c2c(CC)cc(C)cc2CC)C(=O)C2CC3(COC(C)(C)O3)CC12 (stereo not drawn) [I-b-6],90%,100%,100%,90%,80%,60%,100%,30%,100%,100%
CCOC1COC2(CC3C(=O)C(c4c(CC)cc(C)cc4CC)=C(OC(=O)OC)C3C2)OC1 (stereo not drawn) [I-c-27],100%,100%,100%,100%,80%,90%,100%,100%,100%,100%
